According to PubChem BioAssay (NCI):
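Values below derive from 48-hour exposures of cells grown in 96-well plates, with endpoints linearly interpolated between the two concentrations bracketing the appropriate inhibition level. TGI: total growth inhibition.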

Assays:
Test in all cases: NCI anticancer screen, dose series, 48 h
786-0 renal = tested on: 786-0 renal
A498 renal = tested on: A498 renal
A549 NSCLC = tested on: A549 NSCLC
ACHN renal = tested on: ACHN renal
BT-549 breast = tested on: BT-549 breast
CAKI-1 renal = tested on: CAKI-1 renal
CCRF-CEM leukemia = tested on: CCRF-CEM leukemia
COLO 205 colon = tested on: COLO 205 colon
DU-145 prostate = tested on: DU-145 prostate
EKVX NSCLC = tested on: EKVX NSCLC
HCT-116 colon = tested on: HCT-116 colon
HL-60(TB) leukemia = tested on: HL-60(TB) leukemia
HOP-62 NSCLC = tested on: HOP-62 NSCLC
HOP-92 NSCLC = tested on: HOP-92 NSCLC
HS 578T breast = tested on: HS 578T breast
HT29 colon = tested on: HT29 colon
IGROV1 ovarian = tested on: IGROV1 ovarian
K-562 leukemia = tested on: K-562 leukemia
KM12 colon = tested on: KM12 colon
LOX IMVI melanoma = tested on: LOX IMVI melanoma
M14 melanoma = tested on: M14 melanoma
MALME-3M melanoma = tested on: MALME-3M melanoma
MCF7 breast = tested on: MCF7 breast
MDA-MB-231 breast = tested on: MDA-MB-231 breast
MDA-MB-435 = tested on: MDA-MB-435
MDA-N = tested on: MDA-N
MOLT-4 leukemia = tested on: MOLT-4 leukemia
NCI-H226 lung = tested on: NCI-H226 lung
NCI-H23 lung = tested on: NCI-H23 lung
NCI-H460 lung = tested on: NCI-H460 lung
NCI-H522 lung = tested on: NCI-H522 lung
NCI/ADR-RES ovarian = tested on: NCI/ADR-RES ovarian
OVCAR-3 ovarian = tested on: OVCAR-3 ovarian
OVCAR-4 ovarian = tested on: OVCAR-4 ovarian
OVCAR-5 ovarian = tested on: OVCAR-5 ovarian
OVCAR-8 ovarian = tested on: OVCAR-8 ovarian
PC-3 prostate = tested on: PC-3 prostate
RPMI-8226 leukemia = tested on: RPMI-8226 leukemia
RXF 393 renal = tested on: RXF 393 renal
SF-268 CNS = tested on: SF-268 CNS
SF-295 CNS = tested on: SF-295 CNS
SF-539 CNS = tested on: SF-539 CNS
SK-MEL-28 melanoma = tested on: SK-MEL-28 melanoma
SK-MEL-5 melanoma = tested on: SK-MEL-5 melanoma
SK-OV-3 ovarian = tested on: SK-OV-3 ovarian
SN12C renal = tested on: SN12C renal
SNB-19 CNS = tested on: SNB-19 CNS
SNB-75 CNS = tested on: SNB-75 CNS
SR leukemia = tested on: SR leukemia
SW-620 colon = tested on: SW-620 colon
T-47D breast = tested on: T-47D breast
TK-10 renal = tested on: TK-10 renal
U251 CNS = tested on: U251 CNS
UACC-257 melanoma = tested on: UACC-257 melanoma
UACC-62 melanoma = tested on: UACC-62 melanoma
UO-31 renal = tested on: UO-31 renal
HCT-15 colon = tested on: HCT-15 colon
SK-MEL-2 melanoma = tested on: SK-MEL-2 melanoma

Structure (SMILES): C/C(=C/CC[C@](C)(OC1OC(CO)C(O)C(O)C1OC1OC(C)C(O)C(O)C1O)[C@H]1CC[C@]2(C)[C@@H]1CC[C@@H]1[C@@]3(C)CC[C@H](O)C(C)(C)[C@@H]3C[C@H](O)[C@]12C)CO (some centres not stated)
- TGI (786-0 renal): > 100 µM
- TGI (A498 renal): > 100 µM
- TGI (A549 NSCLC): > 100 µM
- TGI (ACHN renal): > 100 µM
- TGI (BT-549 breast): > 100 µM
- TGI (CAKI-1 renal): > 100 µM
- TGI (CCRF-CEM leukemia): > 100 µM
- TGI (COLO 205 colon): > 100 µM
- TGI (DU-145 prostate): > 100 µM
- TGI (EKVX NSCLC): > 100 µM
- TGI (HCT-116 colon): > 100 µM
- TGI (HL-60(TB) leukemia): > 100 µM
- TGI (HOP-62 NSCLC): > 100 µM
- TGI (HOP-92 NSCLC): > 100 µM
- TGI (HS 578T breast): > 100 µM
- TGI (HT29 colon): > 100 µM
- TGI (IGROV1 ovarian): > 100 µM
- TGI (K-562 leukemia): > 100 µM
- TGI (KM12 colon): > 100 µM
- TGI (LOX IMVI melanoma): > 100 µM
- TGI (M14 melanoma): > 100 µM
- TGI (MALME-3M melanoma): > 100 µM
- TGI (MCF7 breast): > 100 µM
- TGI (MDA-MB-231 breast): > 100 µM
- TGI (MDA-MB-435): > 100 µM
- TGI (MDA-N): > 100 µM
- TGI (MOLT-4 leukemia): > 100 µM
- TGI (NCI-H226 lung): > 100 µM
- TGI (NCI-H23 lung): > 100 µM
- TGI (NCI-H460 lung): > 100 µM
- TGI (NCI-H522 lung): > 100 µM
- TGI (NCI/ADR-RES ovarian): > 100 µM
- TGI (OVCAR-3 ovarian): > 100 µM
- TGI (OVCAR-4 ovarian): > 100 µM
- TGI (OVCAR-5 ovarian): > 100 µM
- TGI (OVCAR-8 ovarian): > 100 µM
- TGI (PC-3 prostate): > 100 µM
- TGI (RPMI-8226 leukemia): > 100 µM
- TGI (RXF 393 renal): > 100 µM
- TGI (SF-268 CNS): > 100 µM
- TGI (SF-295 CNS): > 100 µM
- TGI (SF-539 CNS): > 100 µM
- TGI (SK-MEL-28 melanoma): > 100 µM
- TGI (SK-MEL-5 melanoma): > 100 µM
- TGI (SK-OV-3 ovarian): > 100 µM
- TGI (SN12C renal): > 100 µM
- TGI (SNB-19 CNS): > 100 µM
- TGI (SNB-75 CNS): > 100 µM
- TGI (SR leukemia): > 100 µM
- TGI (SW-620 colon): > 100 µM
- TGI (T-47D breast): > 100 µM
- TGI (TK-10 renal): > 100 µM
- TGI (U251 CNS): > 100 µM
- TGI (UACC-257 melanoma): > 100 µM
- TGI (UACC-62 melanoma): > 100 µM
- TGI (UO-31 renal): > 100 µM

Structure (SMILES): COc1c(Cl)ccc(Cl)c1-c1nnc(-c2c(Cl)c(Cl)c(Cl)c(Cl)c2-c2nc3ccc(C(=O)c4ccccc4)cc3[nH]2)o1
- TGI (786-0 renal): > 100 µM
- TGI (A498 renal): 85.5 µM
- TGI (A549 NSCLC): > 100 µM
- TGI (ACHN renal): > 100 µM
- TGI (BT-549 breast): > 100 µM
- TGI (CAKI-1 renal): > 100 µM
- TGI (CCRF-CEM leukemia): 91.7 µM
- TGI (COLO 205 colon): 78.2 µM
- TGI (DU-145 prostate): > 100 µM
- TGI (EKVX NSCLC): > 100 µM
- TGI (HCT-116 colon): > 100 µM
- TGI (HCT-15 colon): > 100 µM
- TGI (HL-60(TB) leukemia): > 100 µM
- TGI (HOP-62 NSCLC): > 100 µM
- TGI (HOP-92 NSCLC): > 100 µM
- TGI (HS 578T breast): > 100 µM
- TGI (HT29 colon): > 100 µM
- TGI (IGROV1 ovarian): > 100 µM
- TGI (K-562 leukemia): > 100 µM
- TGI (KM12 colon): > 100 µM
- TGI (LOX IMVI melanoma): > 100 µM
- TGI (M14 melanoma): > 100 µM
- TGI (MALME-3M melanoma): > 100 µM
- TGI (MCF7 breast): > 100 µM
- TGI (MDA-MB-231 breast): > 100 µM
- TGI (MDA-MB-435): 68 µM
- TGI (MDA-N): 46.4 µM
- TGI (MOLT-4 leukemia): > 100 µM
- TGI (NCI-H226 lung): 78.5 µM
- TGI (NCI-H23 lung): > 100 µM
- TGI (NCI-H522 lung): > 100 µM
- TGI (NCI/ADR-RES ovarian): > 100 µM
- TGI (OVCAR-3 ovarian): > 100 µM
- TGI (OVCAR-4 ovarian): > 100 µM
- TGI (OVCAR-5 ovarian): > 100 µM
- TGI (OVCAR-8 ovarian): > 100 µM
- TGI (PC-3 prostate): > 100 µM
- TGI (RPMI-8226 leukemia): 87.4 µM
- TGI (RXF 393 renal): 65.4 µM
- TGI (SF-268 CNS): > 100 µM
- TGI (SF-295 CNS): 85.7 µM
- TGI (SF-539 CNS): 54 µM
- TGI (SK-MEL-2 melanoma): > 100 µM
- TGI (SK-MEL-28 melanoma): > 100 µM
- TGI (SK-MEL-5 melanoma): 36 µM
- TGI (SK-OV-3 ovarian): > 100 µM
- TGI (SN12C renal): > 100 µM
- TGI (SNB-19 CNS): > 100 µM
- TGI (SNB-75 CNS): > 100 µM
- TGI (SR leukemia): > 100 µM
- TGI (SW-620 colon): > 100 µM
- TGI (T-47D breast): > 100 µM
- TGI (TK-10 renal): > 100 µM
- TGI (U251 CNS): > 100 µM
- TGI (UACC-257 melanoma): > 100 µM
- TGI (UO-31 renal): > 100 µM
